The subject of experiment [1] is human monocytic cell line U937. Put plainly: Human U937 Cellular Necroptosis Assay. Type of experiment: cell-based. The conditions noted are these: U-937; U937 cells stimulated with 25 ng/mL human TNFalpha and 25 μM z-VAD-FMK, 22 hr, viability by Cell Titer-Glo 2.0; average value across multiple runs; read-out: hU937 IC50. As to the method:
Human U937 Cellular Necroptosis Assay
The human monocytic cell line U937 (CRL-1593.2) was purchased from ATCC. The cells were routinely maintained in RPMI-1640 Medium (Gibco, Catalog #11875-093) supplemented with 10% heat inactivated fetal bovine serum (Gibco, Catalog #16140-071), 100 units/mL penicillin and 100 μg/mL streptomycin (Gibco, Catalog #15140-122), in a humidified incubator (37° C., 5% CO2). For the assay, cells were resuspended in RPMI-1640 phenol red free Media (Gibco, Catalog #11835-030) supplemented with 10% fetal bovine serum (Sigma, Catalog #F2442), 100 units/mL penicillin and 100 ug/mL streptomycin. Cells were stimulated with 25 ng/mL human TNFalpha (Cell Sciences, Catalog #CSI15659B) and 25 μM z-VAD-FMK (R&D Systems, Catalog #FMK001) followed by seeding 5000 cells per well in a volume of 40 μL to a white, CulturPlate-384 (Perkin Elmer, Catalog #6007680). Stock solutions of the test compounds were prepared in 100% DMSO (Sigma, Catalog #D2650) and serially diluted 1:3 using 100% DMSO. Compounds were additionally diluted 1:40 in assay medium, and 10 μL/well was transferred to the plate. Following the compound addition the plate was incubated at 37° C. and 5% CO2 for 22 hr. After 22 hr, viability was assessed with the addition of 20 μL of Cell Titer-Glo 2.0 (Promega, Catalog #G9243). The tissue culture plate was shaken on an orbital shaker at 300 RPM for 15 minutes at room temperature in the dark. Luminescence was measured using a PerkinElmer Envision™ plate reader. IC50 values were calculated using a four-parameter logistic curve fit using Genedata Screener software. Results are shown below in Table 5, where the average value across multiple runs is given.

In the next experiment the target is RIPK1 (Homo sapiens (Human), UniProt Q13546). The experiment is described as follows: ADP-Glo Kinase Assay. Type of experiment: biochemical. The settings on record: 5 nM RIPK1 protein, 50 μM ATP, 6 hr reaction, average value across multiple runs. As to the method: In order to measure RIPK1 activity the ADP-Glo kinase assay (Promega, Catalog #V7002) was used to measure the conversion of ATP to ADP. This enzymatic assay was performed in a 384-well white, Optiplate (Perkin Elmer, Catalog #6007299) with assay buffer consisting of 50 mM HEPES pH 7.5 (Gibco, Catalog #15630-080), 50 mM NaCl (Teknova, Catalog #S0252), 30 mM MgCl2 (Ambion, Catalog #AM9530G), 1 mM DTT (Santa Cruz Biotechnology, Catalog #sc-29089), 0.05% BSA (Sigma, Catalog #A3059-50G) and 0.02% CHAPS (Sigma, Catalog #C5070-5G). Stock solutions of the test compounds were prepared in 100% DMSO (Sigma, Catalog #D2650) and serially diluted 1:3 using 100% DMSO. Compounds were additionally diluted 1:40 in assay buffer, and 2 μL/well were transferred to the assay plate. 4 μL/well (final concentration of 5 nM) of RIPK1 protein (SignalChem, Catalog #R07-11G-05) diluted in assay buffer and added to the assay plate followed by a 10 minute preincutation at room temperature. 4 μL/well of ATP (Promega, Catalog #V7002) (final concentration of 50 μM) diluted in assay buffer were then added to the assay plate followed by a 6 hr reaction time. Final concentrations of RIPK1 and ATP refer to a 10 μL volume. Luminescence was measured using a BioTek Synergy™ NEO plate reader. IC50 values were calculated using a four-parameter logistic curve fit using Genedata Screener software. Results are shown below in Table 4, where the average value across multiple runs is given.
(In general: ADP-Glo turns the ADP formed in a reaction into a luminescent signal.)

pIC50: −log10 of the molar value.

RIPK1, sequence (Q13546 1-327): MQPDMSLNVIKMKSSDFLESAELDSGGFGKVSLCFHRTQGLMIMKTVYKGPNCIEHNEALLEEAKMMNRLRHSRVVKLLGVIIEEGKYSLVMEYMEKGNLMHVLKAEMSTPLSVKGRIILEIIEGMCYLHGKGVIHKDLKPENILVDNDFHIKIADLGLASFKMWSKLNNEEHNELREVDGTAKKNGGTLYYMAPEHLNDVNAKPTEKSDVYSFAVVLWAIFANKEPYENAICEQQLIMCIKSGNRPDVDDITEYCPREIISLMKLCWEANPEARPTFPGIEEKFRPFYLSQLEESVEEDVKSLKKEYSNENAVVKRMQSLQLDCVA

What is called pIC50 is the negative decadic logarithm of the IC50, by convention in mol/L. As to `Cc1cc(=O)c(C(=O)Nc2cccc(Cl)c2F)nn1-c1ccccc1` [Example 1, N-(3-chloro-2-fluorophenyl)-6-methyl-4-oxo-1-phenyl-1,4-dihydropyridazine-3-carboxamide], the results for the pIC50 (in experiment [1]; on RIPK1) were 6.87 and 7.49, respectively.

In the case of `Cc1cc(=O)c(C(=O)Nc2cccc(Cl)c2F)nn1-c1ccccc1F` [Example 8, N-(3-chloro-2-fluorophenyl)-1-(2-fluorophenyl)-6-methyl-4-oxo-1,4-dihydropyridazine-3-carboxamide], the pIC50 in experiment [1] was 6.76; at RIPK1, 7.28.

`Cc1cc(=O)c(C(=O)Nc2cccc(Cl)c2F)nn1-c1cc(F)ccc1F` [Example 9, N-(3-chloro-2-fluorophenyl)-1-(2,5-difluorophenyl)-6-methyl-4-oxo-1,4-dihydropyridazine-3-carboxamide]: the figures for the pIC50 (in experiment [1]; on RIPK1) were 6.77 and 7.11, respectively.

As for `Cc1cc(=O)c(C(=O)Nc2cccc(Cl)c2F)nn1-c1cccc(Cl)c1` [Example 17, N-(3-chloro-2-fluorophenyl)-1-(3-chlorophenyl)-6-methyl-4-oxo-1,4-dihydropyridazine-3-carboxamide], the pIC50 is 6.20 in experiment [1] and 7.28 on RIPK1.

As to `Cc1cc(=O)c(C(=O)Nc2c(Br)cccc2C(C)C)nn1-c1ccccc1` [Example 24, N-(2-bromo-6-isopropylphenyl)-6-methyl-4-oxo-1-phenyl-1,4-dihydropyridazine-3-carboxamide], the values for the pIC50 (in experiment [1]; on RIPK1) were 5.58 and 6.31, respectively.

With `Cc1cccc(C2CC2)c1NC(=O)c1nn(-c2ccccc2)c(C)cc1=O` [Example 26, N-(2-cyclopropyl-6-methylphenyl)-6-methyl-4-oxo-1-phenyl-1,4-dihydropyridazine-3-carboxamide], the pIC50 in experiment [1] is 5.50; at RIPK1 it was 6.18.

As for `Cc1cc(=O)c(C(=O)Nc2cc(Cl)c3c(c2)NC(=O)C3)nn1-c1ccccc1` [Example 32, N-(4-chloro-2-oxoindolin-6-yl)-6-methyl-4-oxo-1-phenyl-1,4-dihydropyridazine-3-carboxamide], the pIC50 was 5.23 in experiment [1] and 5.65 at RIPK1.

As for `Cc1cc(=O)c(C(=O)Nc2c3ccccc3nc3ccccc23)nn1-c1ccccc1` [Example 33, N-(acridin-9-yl)-6-methyl-4-oxo-1-phenyl-1,4-dihydropyridazine-3-carboxamide], the figures for the pIC50 (in experiment [1]; on RIPK1) were 5.07 and 5.66, respectively.

`Cc1cc(=O)c(C(=O)NC2CCc3ccccc3NC2=O)nn1-c1ccccc1` (stereo not drawn) [Example 38, 6-Methyl-4-oxo-N-(2-oxo-2,3,4,5-tetrahydro-1H-benzo[b]azepin-3-yl)-1-phenyl-1,4-dihydropyridazine-3-carboxamide]: the values for the pIC50 (in experiment [1]; on RIPK1) were 7.09 and 7.24, respectively.

Take `Cc1c(Cl)c(=O)c(C(=O)NC2CCc3ccccc3NC2=O)nn1-c1ccccc1` (stereo not drawn) [Example 39, 5-Chloro-6-methyl-4-oxo-N-(2-oxo-2,3,4,5-tetrahydro-1H-benzo[b]azepin-3-yl)-1-phenyl-1,4-dihydropyridazine-3-carboxamide]: the results for the pIC50 (in experiment [1]; on RIPK1) were 7.16 and 7.74, respectively.

Take `Cc1c(Cl)c(=O)c(C(=O)NC2CCc3cc(Cl)ccc3NC2=O)nn1-c1ccccc1` (stereo not drawn) [Example 40, 5-Chloro-N-(7-chloro-2-oxo-2,3,4,5-tetrahydro-1H-benzo[b]azepin-3-yl)-6-methyl-4-oxo-1-phenyl-1,4-dihydropyridazine-3-carboxamide]: the pIC50 in experiment [1] was 7.33; at RIPK1, 7.44.

Take `Cc1cc(=O)c(C(=O)NC2CCc3ccccc3N(C)C2=O)nn1-c1ccccc1` (stereo not drawn) [Example 41, 6-methyl-N-(1-methyl-2-oxo-2,3,4,5-tetrahydro-1H-benzo[b]azepin-3-yl)-4-oxo-1-phenyl-1,4-dihydropyridazine-3-carboxamide]: the figures for the pIC50 (in experiment [1]; on RIPK1) were 7.41 and 7.46, respectively.

On to `Cc1c(Cl)c(=O)c(C(=O)N[C@H]2COc3cccnc3N(C)C2=O)nn1-c1ccccc1` [Example 74, (S)-5-chloro-6-methyl-N-(5-methyl-4-oxo-2,3,4,5-tetrahydropyrido[3,2-b]-[1,4]oxazepin-3-yl)-4-oxo-1-phenyl-1,4-dihydropyridazine-3-carboxamide], for which the pIC50 in experiment [1] was 7.24.

Turning to `Cc1ccc(-n2nc(C(=O)N[C@H]3COc4cccnc4N(C)C3=O)c(=O)cc2C)cc1F` [Example 75, (S)-1-(3-fluoro-4-methylphenyl)-6-methyl-N-(5-methyl-4-oxo-2,3,4,5-tetrahydro-pyrido[3,2-b][1,4]oxazepin-3-yl)-4-oxo-1,4-dihydropyridazine-3-carboxamide], the pIC50 in experiment [1] is 7.55.

Consider `CCN1C(=O)[C@@H](NC(=O)c2nn(-c3ccccc3)c(C)cc2=O)COc2cccnc21` [Example 76, (S)-N-(5-ethyl-4-oxo-2,3,4,5-tetrahydro-pyrido[3,2-b][1,4]oxazepin-3-yl)-6-methyl-4-oxo-1-phenyl-1,4-dihydro-pyridazine-3-carboxamide], for which the pIC50 in experiment [1] was 5.25.

Regarding `Cc1ccc(-n2nc(C(=O)N[C@H]3COc4cccnc4N(C)C3=O)c(=O)cc2C)cc1` [Example 77, (S)-6-methyl-N-(5-methyl-4-oxo-2,3,4,5-tetrahydropyrido[3,2-b][1,4]oxazepin-3-yl)-4-oxo-1-(p-tolyl)-1,4-dihydro-pyridazine-3-carboxamide], the pIC50 in experiment [1] was 7.58.

`Cc1cc(=O)c(C(=O)N[C@@H]2C(=O)N(C)c3ncccc3O[C@@H]2C)nn1-c1ccccc1` [Example 78, N-((2R,3S)-2,5-dimethyl-4-oxo-2,3,4,5-tetrahydropyrido[3,2-b]-[1,4]oxazepin-3-yl)-6-methyl-4-oxo-1-phenyl-1,4-dihydropyridazine-3-carboxamide]: the pIC50 in experiment [1] was 6.82.

In the case of `Cc1cc(=O)c(C(=O)NC2CCc3ccccc3NC2=O)nn1-c1cncc(F)c1` (stereo not drawn) [Example 79, 1-(5-fluoropyridin-3-yl)-6-methyl-4-oxo-N-(2-oxo-2,3,4,5-tetrahydro-1H-benzo[b]azepin-3-yl)-1,4-dihydropyridazine-3-carboxamide], the pIC50 in experiment [1] is 6.29.

Take `Cc1cc(=O)c(C(=O)N[C@@H]2C(=O)Nc3ncccc3O[C@@H]2C)nn1-c1ccccc1` [Example 80, 6-methyl-N-((2R,3S)-2-methyl-4-oxo-2,3,4,5-tetrahydropyrido[3,2-b]-[1,4]oxazepin-3-yl)-4-oxo-1-phenyl-1,4-dihydropyridazine-3-carboxamide]: the pIC50 in experiment [1] was 5.43.

On to `COc1cc2c(cn1)N(C)C(=O)C(NC(=O)c1nn(-c3ccccc3)c(C)cc1=O)CC2` (stereo not drawn) [Example 81, N-(7-methoxy-1-methyl-2-oxo-2,3,4,5-tetrahydro-1H-pyrido[3,4-b]azepin-3-yl)-6-methyl-4-oxo-1-phenyl-1,4-dihydropyridazine-3-carboxamide], for which, in experiment [1], the pIC50 was 6.10.

Take `Cc1ccc(-n2nc(C(=O)N[C@H]3COc4cccnc4N(C)C3=O)c(=O)c(Cl)c2C)cc1F` [Example 82, (S)-5-chloro-1-(3-fluoro-4-methyl-phenyl)-6-methyl-N-(5-methyl-4-oxo-2,3,4,5-tetrahydropyrido[3,2-b]-[1,4]oxazepin-3-yl)-4-oxo-1,4-dihydropyridazine-3-carboxamide]: the pIC50 in experiment [1] is 7.25.

Source of the values: patent publication US11690850B2, “Inhibitors of receptor interacting protein kinase I for the treatment of disease” (Board of Regents, The University of Texas System, priority 2019, dated 2023).
